The source of these data is US20140303229A1, “NOVEL SKIN MOISTURIZING COMPOSITIONS” (priority 2007, published 2014).

This series relates to skin. The series is described as follows: 14-day cumulative irritation potential study (predictive occlusive patch test). An excerpt:
Occlusive patches with 100 micro liters of test product were applied to the skin daily for 14 days. Patches with sodium lauryl sulfate, 1.0% was used as a positive control while white petrolatum was used as a negative control.

As for White Petrolatum, under “in vivo”, the “Category (irritation classification of Berger and Bowman)” value is “I”; the “Classification (irritation classification according to Berger and Bowman)” value was “Mild material -”.
`CCCCCCCCCCCCOS(=O)(=O)[O-].[Na+]` [Sodium lauryl sulfate, 1.0%, Sodium lauryl sulfate]: the “Classification (irritation classification according to Berger and Bowman)” value runs as follows: (based on standardized cumulative irritation scores, 14 days, listed as Sodium lauryl sulfate 1.0%, sulfate) “possibly mild”; (based on standardized cumulative irritation scores, 14 days, sulfate) “Possibly mild in”. Further, the “Standardized Cumulative Score (cumulative irritation score)” value (occlusive patches, 100 micro liters, daily for 14 days) is reported as 595.4.
